Measurements: paper PMC7821381, “Multi-Targeted Anticancer Activity of Imidazolate Phosphane Gold(I) Compounds by Inhibition of DHFR and TrxR in Breast Cancer Cells” (Frontiers in Chemistry, 2021)
Read-outs that look alike come from different tables or passages of the source. One block for each molecule: values may come before it.

Legend:
MDA-MB231 cells [1] = system: MDA-MB231 cells; parameters: method as in Gambini et al., 2018; conditions: MDA-MB231, 48 h; ref Gambini et al., 2018; cited from earlier work
A17 cells [2] = system: A17 cells; parameters: method as in Gambini et al., 2018; conditions: A17, 24 h; ref Gambini et al., 2018; cited from earlier work
SKBR3 cells [3] = system: SKBR3 cells; parameters: method as in Serova et al., 2006; conditions: SKBR3, 24 h; ref Serova et al., 2006; cited from earlier work
SKBR3 cells [4] = experiment: MTT cell viability assay on SKBR3 cells; assay type: cell-based, human
Excerpt: (§1) Human MDA-MB-231 (ER–/PR–/HER2–) and SK-BR-3 (ER–/PR–/HER2+) cells were obtained from American Type Culture Collection (Rockville, MD) and cultured in Dulbecco's Modified Essential Medium (DMEM, Gibco, Life Technologies) supplemented with 10% fetal bovine serum (FBS, Gibco, Life Technologies) and 1% penicillin–streptomycin (Gibco, Life Technologies). A17 cells were established from a spontaneous lobular carcinoma that arose in an FVB/neuT mouse (Galiè et al., [2005]), and maintained in DMEM plus 20% FBS and 1% penicillin-streptomycin. Cells were cultured at 37°C under humidified atmosphere with 5% CO2.
(§2) Stock solutions were prepared for each gold(I) compound (50 mM) using dimethyl sulfoxide (DMSO) (Sigma-Aldrich) as solvent. The effects of gold(I) compounds on SKBR3, A17 and MDA-MB231 cells viability were evaluated by seeding, respectively, 10, ^*10^3, 2.5 ^*10^3, 7, ^*10^3 cells/well in 96 wells plates in complete medium (DMEM supplemented with FBS) and compared to those of cisplatin. The day after, fresh medium containing vehicle alone (DMSO, 1 % v/v final concentration) or increasing concentrations of each compound ranging from 0.1 to 100 μM was added. Cell viability was determined using a MTT [3-(4,5-dimethylthiazol-2-yl)-2,5-diphenyl-2H-tetrazolium bromide Sigma Aldrich, St. Louis, MO] assay, which is based on the conversion of MTT to formazan crystals by mitochondrial enzymes, after 24, 48, and 72 h. The formazan deposits were dissolved in DMSO and the absorbance of each well was measured at 540 nm in Multiskan Ascent 96/384 Plate Reader. Each drug concentration was evaluated with 8 replicates and each experiment was repeated three times. At the end of the experiments a dose–response curve was plotted, and the IC50 concentrations were determined. Statistical analysis was performed using One-Way ANOVA analysis of variance followed by Dunnett's Multiple Comparison Test. Quantitative data are presented as means ± SEM. Differences were considered significant at ^*P ≤ 0.0332; ^**P ≤ 0.0021; ^***P ≤ 0.0002; ^****P ≤ 0.0001.
(§3) IC50 values were calculated for each of the cell lines tested, by fitting the concentration-effect curves data obtained in the three experiments with the sigmoid-Emax model using nonlinear regression, weighted by the reciprocal of the square of the predicted effect.

DNA = system: DNA; parameters: method as in Nafisi et al., 2007; conditions: ref Nafisi et al., 2007; cited from earlier work
[5] = Stability in physiological condition; assay type: physicochemical
MDA-MB231 cells [6] = experiment: MTT cell viability assay on MDA-MB231 cells; assay type: cell-based, human; conditions: MDA-MB231, 24 h, ± S. D.
Excerpt: as §1
as §2, with “Statistical analysis was performed using One-Way ANOVA analysis of variance followed by Dunnett's Multiple Comparison Test.” left out, “Differences were considered significant at ^*P ≤ 0.0332; ^**P ≤ 0.0021; ^***P ≤ 0.0002; ^****P ≤ 0.0001.” left out
as §3

A17 cells [7] = experiment: MTT cell viability assay on A17 cells; assay type: cell-based, murine; conditions: A17, 24 h, ± S. D.
Excerpt: as §1
as §2, with “Statistical analysis was performed using One-Way ANOVA analysis of variance followed by Dunnett's Multiple Comparison Test.” left out, “Differences were considered significant at ^*P ≤ 0.0332; ^**P ≤ 0.0021; ^***P ≤ 0.0002; ^****P ≤ 0.0001.” left out
as §3

Molecule: N.N.[Cl][Pt][Cl] [Cisplatin]
IC50 (MDA-MB231 cells [1]): 50.5 ± 2 µM
IC50 (A17 cells [2]): 15.9 ± 1.17 µM
IC50 (SKBR3 cells [3]): 43 ± 7 µM

Molecule: O=C(O)c1ccccc1[PH]([Au][Cl])(c1ccccc1)c1ccccc1 [Compound 1, 2-benzoic-diphenylphosphanegold chloride]
cytotoxic activity in MTT screening (SKBR3 cells [4]; SKBR3 cells, 72 h (Figure 1S) and 48 h (Figure 2)): did not show relevant cytotoxic activity

Molecule: CN(C)c1ccc2cc3ccc(N(C)C)cc3nc2c1 [acridine orange]
binding constant of classical intercalators to DNA (DNA): 26900 M⁻¹

Molecule: CC[n+]1c(-c2ccccc2)c2cc(N)ccc2c2ccc(N)cc21 [ethidium bromide]
binding constant of classical intercalators to DNA (DNA): 65800 M⁻¹

Molecule: CN(C)c1ccc2nc3ccc(=[N+](C)C)cc-3sc2c1 [methylene blue]
binding constant of classical intercalators to DNA (DNA): 21300 M⁻¹

stability in physiological condition [5]: less stable in physiological condition
IC50 (SKBR3 cells [4]; SKBR3, 24 h, ± S. D.): 12.3 ± 1.1 µM
IC50 (MDA-MB231 cells [6]): 12.8 ± 0.7 µM
Molecule: (3,5-dintropyrazolyl-1H-gold(I)-(triphenylphosphane) [Compound 4]
IC50 (A17 cells [7]): 11 ± 1 µM
